According to US20140288077A1, “SUBSTITUTED 4-PHENOXYPHENOL ANALOGS AS MODULATORS OF PROLIFERATING CELL NUCLEAR ANTIGEN ACTIVITY” (ST. JUDE CHILDREN'S RESEARCH HOSPITAL, priority 2011, published 2014):
Where “and” joins values, the source holds several entries; their conditions need not be identical. Equal values may be shown once.

Key:
[1] = tested on: cells; assay: Cell cycle analysis by flow cytometry (PI); format: cell-based; conditions: 20 μM, 24 h, FIG. 25E
[2] = tested on: U2OS cells; assay: γH2AX staining by flow cytometry, T2AA and cisplatin; conditions: 18 h, FIG. 28A
Experimental: For γH2AX staining, cells were cultured at 4×10^5 cells/well of 12-well plates in 1 ml of medium, treated with drugs as indicated, trypsin-lifted and stained by using the FlowCellect H2A.X DNA Damage kit (FCCH025142, Millipore) according to the manufacturer's recommendations. All samples were filtered through 40-μm nylon mesh prior to running flow cytometry.
NT, no treatment. Error bars, S.D.

[3] = tested on: U2OS cells; assay: Chromatin immunostaining of phospho(Ser33)RPA32; format: cell-based; conditions: 40 μM, 24 h, FIG. 26B
Experimental: The cells were fixed with 4% paraformaldehyde in PBS for 20 min at room temperature, rinsed three times with PBS for 5 min each, permeabilized with ice-cold methanol for 10 min at −20° C., and rinsed once with PBS for 5 min. The specimens were blocked with PBS containing 5% FBS and 0.03% Triton X-100 for 60 min, applied anti-PCNA antibody (1:3200) and anti-Polδ3 antibody (2.9 μg/ml) or anti-phospho(Ser^33)RPA32 antibody (4.0 μg/ml) in antibody buffer (PBS containing 1% FBS and 0.03% Triton X-100), incubated overnight in a humid chamber at 4° C., and rinsed with PBS three times for 5 min each at room temperature. The specimens were incubated with Alexa Fluor 555-conjugated goat anti-mouse IgG (Invitrogen) antibody (1:500) in the antibody buffer for 2 h in a humidified chamber at room temperature the dark, rinsed once with PBS for 5 min, incubated with Alexa Fluor 488-conjugated goat anti-rabbit IgG (Invitrogen) antibody (1:500) in the antibody buffer for 2 h in a humidified chamber at room temperature in the dark, and rinsed three times with PBS for 5 min. The coverslips were mounted VectaShield containing DAPI at 1 μg/ml (Vector Laboratories). Immunofluorescence imaging for chromatin was performed on a ClSi microscope (Nikon) with a Cascade 512B photomultiplier (Photometrics). Images were processed using EZC1 (Nikon) and Photoshop (Adobe) software. […]

[4] = tested on: cells; assay: Apoptosis analysis by flow cytometry (Annexin-V and PI); format: cell-based; parameters: dose or concentration left out as unconfirmed; conditions: 5 days, FIG. 25G
[5] = tested on: U2OS cells; assay: Growth of cells after treatment with cisplatin and T2AA and release (Alamar Blue); conditions: 18 h, then 3 days drug-free, FIG. 28B
Experimental: The cells were treated with drugs as indicated in a black (transparent flat bottom) 384-well or 96-well plate. Cellular viability was determined by using Alamar Blue reagent (Invitrogen) on an EnVision plate reader according to the manufacturer's recommendations and normalized with signal from wells of DMSO treatment=100% and of no cells=0%.
Viability of the cells was measured by Alamar Blue reagent, and signals were normalized with those of no cell well (0%) and cells with no drugs (100%). NT, no treatment. Error bars, S.D.

[6] = tested on: HeLa cells; assay: Immunostaining of phospho-Chk1 and γH2AX (DNA replication stress); format: cell-based; conditions: 4 h, FIG. 26A
[7] = tested on: XP2OS(SV40) cells; assay: TLS assay in mammalian cultured cells with cisplatin-cross-linked Pt-GTG plasmid; format: cell-based; conditions: 5 μM of T2AA
Experimental: The cisplatin-modified plasmid was constructed, and the TLS assay was performed as previously described (14) with some modifications. Briefly, two oligonucleotides, [NT] and [NT], were annealed and inserted between the sites of EcoRV and EcoRI in pUCS[…]. The resultant plasmid was designated as pUCS[…]+ BglII. […] This oligonucleotide has the cross-link at the underlined site of [NT]. An unmodified 13-mer oligonucleotide was used for the construction of control plasmid. These oligonucleotides were purified with HPLC and PAGE. […] The gapped duplex plasmid was incubated with a 2-fold molar excess of the purified 13-mer oligonucleotide, which is complementary to the gap sequence except for a bulge in the middle in the presence of ATP (1 mM) and T4 DNA ligase (New England Biolabs, Ipswich, MA) at 16° C. for 6 min. The covalently closed circle plasmid was purified with equilibrium centrifugation on a CsCl gradient. The plasmids with and without the cisplatin adduct are hereafter referred to as Pt-GTG and Mock-GTG, respectively. […] The plasmids were extracted from the cells by using the QIAprep spin miniprep kit (Qiagen), digested with the restriction endonuclease DpnI (New England Biolabs) to remove the unreplicated plasmids, and introduced into Escherichia coli strain DH5α. The E. coli was plated onto LB agar plates containing ampicillin, X-gal, and isopropyl-β-D-thioga-lactopyranoside. […] Therefore, TLS frequency (%) was defined as (number of blue colonies/number of total colonies)×100.

[8] = tested on: U2OS cells; assay: DNA replication assay (BrdU incorporation); format: cell-based; conditions: titration of compound, 24 h, FIG. 25A-C
Experimental: DNA replication in U2OS and/or HeLa cells were analyzed by the rates of bromodeoxyuridine (BrdU) incorporation by a method reported previously (Taddei, A., et al. (1999) J. Cell Biol. 147, 1153-1166.). For immunofluorescence, cells were propagated at a subconfluent density onto a coverslip in a 6-well culture plate the day before the assay. […] During the last 15 min in the incubation period, BrdU was added at a concentration of 10 μM. Cells were washed with PBS and fixed with 4% paraformaldehyde in PBS for 15 min at room temperature. After permeabilization with 0.2% Triton X-100 in PBS for 15 min, cells were treated with 4N hydrochloric acid for 10 min and extensively rinsed with PBS. After blocking cells with 3% FBS in PBS for 20 min, anti-BrdU monoclonal antibody (1 μg/ml; clone 44, BD Pharmingen) was added to the cells and incubated at room temperature for 1 h. Cells were rinsed with PBS three times for 5 min each. Antimouse IgG conjugated with Alexa Fluor 555 (Invitrogen) was added and incubated at room temperature for 30 min. […] Fluorescence microscopy was done on an E800 microscope (Nikon) with a DXM1120 digital camera (Nikon). […] For quantitative analyses, BrdU incorporation was measured with the APC BrdU Flow Kit (BD Pharmingen) following the manufacturer's instructions. […] The populations of BrdU-positive cells (a) and mean BrdU intensity in S-phase cells (b) were recorded. […]

[9] = tested on: Polδ3; assay: Immunoblotting for Polδ3 in whole cell lysates; format: cell-based; conditions: U2OS cells, FIG. 24B
Experimental: The cells treated as indicated were washed twice with ice-cold PBS, collected in a spin tube, and lysed with radioimmune precipitation assay buffer supplemented with Halt protease inhibitor mixture and Halt phosphatase inhibitor mixture (Thermo Scientific) using approximately twice the volume of the cell pellet on ice for 0.5 h. Protein concentration was determined by a BCA assay (Thermo Scientific) according to the manufacturer's recommendation. Normalized amounts of samples were loaded on SDS-PAGE as indicated and electrotransferred to a PVDF membrane. The membrane was blocked with SuperBlock buffer (Thermo Scientific) and incubated with the indicated primary antibodies in SuperBlock at 4° C. overnight, rinsed with TBS, 0.05% Tween 20 three times for 10 min, incubated with the corresponding secondary IgG-HRP conjugate in SuperBlock at room temperature for 1 h, and rinsed with TBS, 0.05% Tween 20 for 15 min. Proteins probed on the membrane were visualized by chemiluminescence using WestPico reagent (Thermo Scientific) and developed on BioMax MR film (Eastman Kodak Co.).

**Q.** What does the source list for N[C@H](CO)Cc1cc(I)c(Oc2ccc(O)cc2)c(I)c1 [Compound T2AA]?
**A.** cell cycle [1]: arrested cells at S-phase; γH2AX level (DNA damage response) ([2]; T2AA and cisplatin together): further increased much higher than the level combined from each single treatment; γH2AX level (DNA damage response) ([2]; single agent): induced γH2AX only a little; immunofluorescence of phospho-RPA32 in nuclei [3]: increased; apoptosis (Annexin-V / PI) [4]: increased cellular populations in early apoptosis but not necrosis; reduction of U2OS cell growth ([5]; 10 μM T2AA alone): less than 10%; U2OS cell growth ([5]; cisplatin and T2AA together): significantly reduced; phosphorylation of Chk1 and H2AX [6]: phosphorylated; Mock GTG plasmid Raito (%) blue/total, Total/Average [7]: 36.9 (100) %; Pt-GTG plasmid Raito (%) blue/total, Total/Average [7]: 5.3 (14.2) %; Mock GTG plasmid Raito (%) blue/total ([7]; single experiments): 36.0% and 34.5% and 41.0% and 37.9% and 38.1% and 34.2%; BrdU incorporation [8]: inhibited the BrdU incorporation significantly in a dose-dependent manner; expression of Polδ3 protein in whole cell lysate [9]: not reduced
